According to ChEMBL document CHEMBL5729354, “Substituted pyrrolo[2,3-d]pyrimidines as JAK inhibitors” (2022):

Assays:
[1] = molecular target: T1, Tyrosine-protein kinase JAK3 (Homo sapiens, UniProt P52333); assay: (§1) JAK/TYK2 Assay: 10 mM test compound stock or 1 mM control compound stock (tofocitinib, ruxolitinib or staurosporine) in DMSO was diluted to 0.4 mM in DMSO. A 3-fold series dilution was then performed in DMSO to generate 10 different compound concentrations. The assay was carried out in 384-well white plate. 0.5 uL of 40× compound DMSO solution at different concentrations was mixed with 10 uL 2× enzyme prepared in reaction buffer (20 mM HEPES, 10 mM MgCl2, 0.01% Tween, 1 mM DTT, pH 7.5). 10 uL 2× substrate mixture prepared in reaction buffer was then added to start the reaction. A short spin was done to settle down all solutions to the bottom of the plate. Final concentrations of test compound in the reaction mixture were 10000, 3333, 1111, 370, 123, 41.2, 13.7, 4.57, 1.52 and 0.51 nM. Concentrations of control compound were ten times less. Enzymatic reaction was conducted at 25° C. for 1-2 hours. 10 uL of Kinase Glo Reagents was added to stop the reaction and generate the luminescent signal which was measured using Envision. Luminescence signal was inversely related to kinase activity. […] The mixture without any compound was the positive control. [ATP] [sub] timeJAK1 7.5 nM 2 uM 30 uM (IRS-1) 1 hrJAK2 0.8 nM 2 uM 4 uM (pEY) 1 hrJAK3 1.5 nM 2 uM 4 uM (pEY) 1 hrTYK2 9 nM 2 uM 30 uM (IRS-1) 1 hr
T1 sequence (P52333 whole entry): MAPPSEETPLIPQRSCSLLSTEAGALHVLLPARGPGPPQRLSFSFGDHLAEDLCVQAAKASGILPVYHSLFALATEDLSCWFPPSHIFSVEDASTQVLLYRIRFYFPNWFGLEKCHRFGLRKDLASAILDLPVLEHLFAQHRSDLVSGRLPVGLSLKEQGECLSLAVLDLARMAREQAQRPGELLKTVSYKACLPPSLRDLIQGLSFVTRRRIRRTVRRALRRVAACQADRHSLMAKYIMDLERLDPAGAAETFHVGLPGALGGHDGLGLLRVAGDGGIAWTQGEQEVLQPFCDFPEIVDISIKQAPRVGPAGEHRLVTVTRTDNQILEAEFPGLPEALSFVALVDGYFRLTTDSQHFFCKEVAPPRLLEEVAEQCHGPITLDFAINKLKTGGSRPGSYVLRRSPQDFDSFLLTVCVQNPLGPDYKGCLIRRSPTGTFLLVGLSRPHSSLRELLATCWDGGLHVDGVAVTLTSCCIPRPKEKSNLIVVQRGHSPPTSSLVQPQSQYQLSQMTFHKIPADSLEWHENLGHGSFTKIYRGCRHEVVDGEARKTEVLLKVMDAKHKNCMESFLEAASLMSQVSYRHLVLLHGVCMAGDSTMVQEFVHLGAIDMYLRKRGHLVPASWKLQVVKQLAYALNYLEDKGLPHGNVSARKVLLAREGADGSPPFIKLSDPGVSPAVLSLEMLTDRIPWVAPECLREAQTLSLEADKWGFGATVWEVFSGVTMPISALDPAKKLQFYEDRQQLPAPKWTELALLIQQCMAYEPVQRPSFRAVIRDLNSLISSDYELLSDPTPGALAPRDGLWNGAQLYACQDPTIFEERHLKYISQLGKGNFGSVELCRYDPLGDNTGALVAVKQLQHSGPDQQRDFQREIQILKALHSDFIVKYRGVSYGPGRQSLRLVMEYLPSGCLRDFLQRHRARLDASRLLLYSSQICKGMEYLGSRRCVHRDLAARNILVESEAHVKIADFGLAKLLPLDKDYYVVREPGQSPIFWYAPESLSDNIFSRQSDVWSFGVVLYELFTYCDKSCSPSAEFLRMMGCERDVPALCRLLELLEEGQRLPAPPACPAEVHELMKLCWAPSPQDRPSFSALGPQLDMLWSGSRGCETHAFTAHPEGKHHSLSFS

[2] = molecular target: Non-receptor tyrosine-protein kinase TYK2 (Homo sapiens, UniProt P29597); assay: as §1
Sequence of Non-receptor tyrosine-protein kinase TYK2 (P29597 whole entry): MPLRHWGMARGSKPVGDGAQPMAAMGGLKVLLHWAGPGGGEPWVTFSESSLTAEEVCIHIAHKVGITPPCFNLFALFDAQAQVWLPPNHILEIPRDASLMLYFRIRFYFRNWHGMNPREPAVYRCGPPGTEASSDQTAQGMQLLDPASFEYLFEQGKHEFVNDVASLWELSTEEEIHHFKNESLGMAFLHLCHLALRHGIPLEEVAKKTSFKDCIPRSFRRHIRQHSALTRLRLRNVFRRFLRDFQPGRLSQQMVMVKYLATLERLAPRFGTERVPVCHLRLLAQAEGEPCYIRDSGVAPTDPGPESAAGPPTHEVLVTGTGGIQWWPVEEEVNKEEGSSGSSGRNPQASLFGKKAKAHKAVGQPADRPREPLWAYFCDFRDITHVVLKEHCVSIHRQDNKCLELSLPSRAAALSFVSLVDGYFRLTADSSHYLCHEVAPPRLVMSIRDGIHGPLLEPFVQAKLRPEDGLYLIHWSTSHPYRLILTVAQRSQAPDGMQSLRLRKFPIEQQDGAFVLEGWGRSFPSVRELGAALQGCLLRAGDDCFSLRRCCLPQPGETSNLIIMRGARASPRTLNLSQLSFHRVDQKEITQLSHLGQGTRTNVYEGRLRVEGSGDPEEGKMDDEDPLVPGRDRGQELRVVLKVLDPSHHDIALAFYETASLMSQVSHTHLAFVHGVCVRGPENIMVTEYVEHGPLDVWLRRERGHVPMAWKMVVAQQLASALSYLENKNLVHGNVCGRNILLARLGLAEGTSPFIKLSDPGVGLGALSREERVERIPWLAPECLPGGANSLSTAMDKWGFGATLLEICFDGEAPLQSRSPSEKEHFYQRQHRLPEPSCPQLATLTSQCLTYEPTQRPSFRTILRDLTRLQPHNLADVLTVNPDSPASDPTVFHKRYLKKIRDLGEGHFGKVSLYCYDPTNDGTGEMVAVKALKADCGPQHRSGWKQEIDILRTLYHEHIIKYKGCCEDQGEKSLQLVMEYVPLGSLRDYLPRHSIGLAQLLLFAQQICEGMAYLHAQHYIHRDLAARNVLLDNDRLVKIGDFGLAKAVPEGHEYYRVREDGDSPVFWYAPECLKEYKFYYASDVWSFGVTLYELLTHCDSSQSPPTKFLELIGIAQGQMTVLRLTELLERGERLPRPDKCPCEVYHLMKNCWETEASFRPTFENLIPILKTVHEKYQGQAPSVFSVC

[3] = molecular target: Tyrosine-protein kinase JAK1 (Homo sapiens, UniProt P23458); assay: as §1
Sequence of Tyrosine-protein kinase JAK1 (P23458 whole entry): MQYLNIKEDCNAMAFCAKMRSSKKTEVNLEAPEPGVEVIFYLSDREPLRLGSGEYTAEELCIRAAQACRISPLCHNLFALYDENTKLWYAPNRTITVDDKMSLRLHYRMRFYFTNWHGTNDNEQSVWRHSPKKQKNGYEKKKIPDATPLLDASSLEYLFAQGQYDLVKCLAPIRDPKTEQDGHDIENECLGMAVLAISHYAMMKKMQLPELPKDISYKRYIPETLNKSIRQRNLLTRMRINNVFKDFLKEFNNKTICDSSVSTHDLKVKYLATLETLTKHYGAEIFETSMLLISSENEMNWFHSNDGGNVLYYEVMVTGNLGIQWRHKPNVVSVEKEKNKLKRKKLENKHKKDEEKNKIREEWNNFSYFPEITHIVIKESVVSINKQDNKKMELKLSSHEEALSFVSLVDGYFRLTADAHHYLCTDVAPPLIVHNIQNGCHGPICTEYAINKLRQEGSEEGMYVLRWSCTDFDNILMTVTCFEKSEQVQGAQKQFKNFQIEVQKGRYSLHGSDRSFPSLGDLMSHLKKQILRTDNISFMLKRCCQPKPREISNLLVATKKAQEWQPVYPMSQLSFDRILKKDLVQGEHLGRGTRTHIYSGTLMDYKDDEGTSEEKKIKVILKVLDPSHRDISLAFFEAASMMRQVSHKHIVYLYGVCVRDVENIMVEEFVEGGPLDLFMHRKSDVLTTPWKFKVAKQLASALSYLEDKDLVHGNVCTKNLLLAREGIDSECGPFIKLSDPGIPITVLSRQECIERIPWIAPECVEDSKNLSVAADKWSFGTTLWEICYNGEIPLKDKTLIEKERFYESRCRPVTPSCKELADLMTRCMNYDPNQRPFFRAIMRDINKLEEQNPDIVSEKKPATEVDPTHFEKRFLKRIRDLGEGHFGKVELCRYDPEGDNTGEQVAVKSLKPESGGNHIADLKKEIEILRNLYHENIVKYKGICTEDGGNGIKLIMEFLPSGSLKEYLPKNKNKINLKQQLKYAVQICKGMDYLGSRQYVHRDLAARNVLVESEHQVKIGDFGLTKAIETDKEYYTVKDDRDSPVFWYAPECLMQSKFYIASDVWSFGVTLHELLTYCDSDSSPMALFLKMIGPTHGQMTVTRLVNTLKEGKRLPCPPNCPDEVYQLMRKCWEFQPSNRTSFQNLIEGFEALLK

[4] = molecular target: Tyrosine-protein kinase JAK2 (Homo sapiens, UniProt O60674); assay: as §1
Sequence of Tyrosine-protein kinase JAK2 (O60674 whole entry): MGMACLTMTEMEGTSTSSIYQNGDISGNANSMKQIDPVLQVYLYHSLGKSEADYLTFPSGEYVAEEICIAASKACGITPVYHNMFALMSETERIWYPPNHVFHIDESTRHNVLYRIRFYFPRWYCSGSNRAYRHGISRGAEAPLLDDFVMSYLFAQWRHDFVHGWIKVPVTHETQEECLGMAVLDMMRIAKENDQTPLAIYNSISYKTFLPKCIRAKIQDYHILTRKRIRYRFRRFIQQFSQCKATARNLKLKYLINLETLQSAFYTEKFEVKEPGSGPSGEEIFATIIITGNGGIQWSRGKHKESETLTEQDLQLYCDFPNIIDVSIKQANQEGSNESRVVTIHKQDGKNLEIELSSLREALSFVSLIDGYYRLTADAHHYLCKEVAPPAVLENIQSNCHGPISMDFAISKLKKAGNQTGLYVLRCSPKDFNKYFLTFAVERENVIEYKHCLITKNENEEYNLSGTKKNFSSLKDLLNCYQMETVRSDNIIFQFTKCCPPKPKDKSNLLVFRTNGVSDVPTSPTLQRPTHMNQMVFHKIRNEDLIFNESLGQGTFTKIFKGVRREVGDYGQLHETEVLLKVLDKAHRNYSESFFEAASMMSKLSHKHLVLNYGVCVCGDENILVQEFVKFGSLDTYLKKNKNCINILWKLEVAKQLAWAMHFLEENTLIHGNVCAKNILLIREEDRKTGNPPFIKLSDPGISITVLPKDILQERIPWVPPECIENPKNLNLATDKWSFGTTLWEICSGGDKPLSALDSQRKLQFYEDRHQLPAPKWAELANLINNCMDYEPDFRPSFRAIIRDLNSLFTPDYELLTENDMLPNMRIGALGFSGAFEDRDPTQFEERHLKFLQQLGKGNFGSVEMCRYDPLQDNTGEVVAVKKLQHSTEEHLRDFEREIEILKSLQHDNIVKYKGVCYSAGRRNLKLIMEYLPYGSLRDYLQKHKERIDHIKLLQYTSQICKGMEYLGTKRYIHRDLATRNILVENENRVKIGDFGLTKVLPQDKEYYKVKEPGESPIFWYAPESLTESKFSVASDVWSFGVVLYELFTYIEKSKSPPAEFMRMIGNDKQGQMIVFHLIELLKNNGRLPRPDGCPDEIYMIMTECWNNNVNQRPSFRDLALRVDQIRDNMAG

IC50 [1]: < 0.1 µM
IC50 [2]: < 0.1 µM
IC50 [3]: < 0.1 µM
IC50 [4]: < 0.1 µM
Structure (SMILES): CCC(CC)Cn1ccc2cnc(Nc3cnn(CC(=O)O[C@@H]4C[C@@H](C(=O)OC)N(C)C4)c3)nc21
